Source: the supplement of paper PMC10307832

Experiments:
Test in all cases: relative viability (nuclei count vs DMSO), 5 days (fraction); higher = more cells survive
Carfilzomib + Dasatinib = compound: CC(C)C[C@H](NC(=O)[C@H](CCc1ccccc1)NC(=O)CN1CCOCC1)C(=O)N[C@@H](Cc1ccccc1)C(=O)N[C@@H](CC(C)C)C(=O)[C@@]1(C)CO1 [Carfilzomib] + Cc1nc(Nc2ncc(C(=O)Nc3c(C)cccc3Cl)s2)cc(N2CCN(CCO)CC2)n1 [Dasatinib] (partner 0.075 µM)
How it was run: (§1)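 Relative viability equals treated-well nuclei counts divided by vehicle-well nuclei counts. Counts came from 4× images of lung cancer cell lines grown in 1536-well plates for 5 days after pin-tool dosing on the day after seeding. Dosing used one drug alone or a fixed anchor-drug dose plus five library-drug doses (not always all listed) in √10 steps, and values are medians of duplicate plates.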

Crizotinib + Bortezomib = compound: C[C@@H](Oc1cc(-c2cnn(C3CCNCC3)c2)cnc1N)c1c(Cl)ccc(F)c1Cl [Crizotinib] + CC(C)C[C@H](NC(=O)[C@H](Cc1ccccc1)NC(=O)c1cnccn1)B(O)O [Bortezomib] (partner 0.002 µM)
How it was run: as §1

Crizotinib + Olaparib = compound: C[C@@H](Oc1cc(-c2cnn(C3CCNCC3)c2)cnc1N)c1c(Cl)ccc(F)c1Cl [Crizotinib] + O=C(c1cc(Cc2n[nH]c(=O)c3ccccc23)ccc1F)N1CCN(C(=O)C2CC2)CC1 [Olaparib] (partner 8 µM)
How it was run: as §1

Olaparib + Pemetrexed = compound: O=C(c1cc(Cc2n[nH]c(=O)c3ccccc23)ccc1F)N1CCN(C(=O)C2CC2)CC1 [Olaparib] + Nc1nc2[nH]cc(CCc3ccc(C(=O)N[C@@H](CCC(=O)O)C(=O)O)cc3)c2c(=O)[nH]1 [Pemetrexed] (partner 0.2 µM)
How it was run: as §1

Cell Line	relative viability (Carfilzomib + Dasatinib; first compound 0.001 µM)	relative viability (Carfilzomib + Dasatinib; first compound 0.003162 µM)	relative viability (Carfilzomib + Dasatinib; first compound 0.01 µM)	relative viability (Carfilzomib + Dasatinib; first compound 0.03162 µM)	relative viability (Carfilzomib + Dasatinib; first compound 0.1 µM)	relative viability (Crizotinib + Bortezomib; first compound 0.01 µM)	relative viability (Crizotinib + Bortezomib; first compound 0.03162 µM)	relative viability (Crizotinib + Bortezomib; first compound 0.1 µM)	relative viability (Crizotinib + Bortezomib; first compound 1 µM)	relative viability (Crizotinib + Olaparib; first compound 0.01 µM)	relative viability (Crizotinib + Olaparib; first compound 0.03162 µM)	relative viability (Crizotinib + Olaparib; first compound 0.1 µM)	relative viability (Crizotinib + Olaparib; first compound 0.3162 µM)	relative viability (Crizotinib + Olaparib; first compound 1 µM)	relative viability (Olaparib + Pemetrexed; first compound 0.08 µM)	relative viability (Olaparib + Pemetrexed; first compound 0.253 µM)	relative viability (Olaparib + Pemetrexed; first compound 2.53 µM)	relative viability (Olaparib + Pemetrexed; first compound 8 µM)	relative viability (Crizotinib + Bortezomib; first compound 0.3162 µM)
NCI-H441	0.66	0.629	0.376	0.156	0.176	0.689	0.419	0.764	0.355	0.595	0.444	0.583	0.517	0.587	0.28	0.279	0.287	0.239	–
ABC-1	0.521	0.504	0.196	0.172	0.324	0.277	0.368	0.292	0.299	–	1.11	0.823	–	0.63	–	–	–	–	0.279
NCI-H2170	0.56	0.519	0.832	0.352	0.237	–	–	–	–	0.558	0.625	0.642	0.558	0.62	0.259	0.331	0.265	0.245	–
NCI-H1944	0.214	0.233	0.186	0.203	0.135	–	–	–	–	0.414	0.423	0.378	0.424	0.461	0.639	0.529	0.496	0.561	–
PC-3 [JPC-3]	0.914	0.972	0.996	0.597	0.428	0.772	0.948	0.833	0.837	1.09	1.22	1.13	–	1.12	1.1	–	1.26	1.05	0.878
NCI-H1648	–	–	–	–	–	–	–	–	–	–	0.981	0.861	1.27	0.77	0.967	0.708	–	0.735	–
NCI-H1975	–	0.33	0.144	0.0922	0.107	0.317	0.362	0.315	0.404	0.806	0.743	0.794	0.749	0.774	0.304	0.265	0.303	0.275	0.373
NCI-H650	–	0.515	0.457	0.359	0.164	0.769	0.655	0.806	0.671	0.481	0.465	0.396	–	0.346	0.912	0.901	0.871	0.776	0.613
NCI-H1623	0.509	0.571	0.599	0.271	0.642	–	–	–	–	–	–	–	–	–	–	–	–	–	–
NCI-H1755	0.428	0.45	0.479	0.365	0.263	–	0.964	0.923	0.991	0.779	0.867	0.854	0.923	0.827	0.447	0.68	0.419	0.396	0.87
NCI-H1666	0.812	0.878	0.817	0.568	0.352	0.791	0.981	0.829	0.912	0.711	0.788	0.819	0.695	0.771	0.945	0.772	0.856	0.822	0.796
NCI-H1792	0.753	0.9	0.918	0.657	0.649	0.955	0.983	1.01	0.917	0.505	0.458	0.378	–	0.37	0.86	0.547	0.605	0.398	0.931
CAL-12T	0.321	0.484	0.509	0.174	0.108	0.991	1.02	1.13	0.907	0.811	0.794	0.743	0.709	0.723	1.48	1.04	1.16	0.963	–
EPLC-272H	0.379	0.407	0.215	0.0812	0.0631	0.87	0.865	1.03	–	0.624	0.729	0.805	0.974	0.837	0.316	0.312	0.345	0.357	0.912
IA-LM	–	–	–	–	–	0.848	0.754	0.735	0.704	0.797	0.844	0.821	0.691	0.73	–	–	–	–	0.744
PC-14	0.311	0.305	0.241	0.0289	0.0424	0.892	0.742	0.905	0.961	0.274	0.28	0.307	0.401	0.289	0.131	0.14	0.135	0.139	0.805
NCI-H1703	–	–	–	–	–	0.365	0.301	0.226	0.322	0.389	0.757	0.528	0.414	0.463	–	–	–	–	0.319
NCI-H1437	0.28	0.483	0.419	0.257	0.133	0.48	0.553	0.558	0.494	0.625	0.608	0.627	0.651	0.66	0.345	0.3	0.32	0.325	0.434
NCI-H358	0.171	0.152	0.2	0.0675	0.0836	–	–	–	–	0.634	0.599	0.54	0.561	0.582	0.159	0.172	0.176	0.152	–
LK-2	0.299	0.349	0.229	0.154	0.17	–	–	–	–	0.678	0.638	0.87	0.461	0.753	0.298	0.304	0.257	0.327	–
H3255	0.356	0.431	0.486	0.339	0.355	0.736	0.925	0.814	0.659	0.565	0.56	0.575	0.518	0.627	0.598	0.58	0.577	0.597	0.681

Cell Line	relative viability (Carfilzomib + Dasatinib; first compound 0.001 µM)	relative viability (Carfilzomib + Dasatinib; first compound 0.003162 µM)	relative viability (Carfilzomib + Dasatinib; first compound 0.01 µM)	relative viability (Carfilzomib + Dasatinib; first compound 0.03162 µM)	relative viability (Carfilzomib + Dasatinib; first compound 0.1 µM)	relative viability (Crizotinib + Bortezomib; first compound 0.01 µM)	relative viability (Crizotinib + Bortezomib; first compound 0.03162 µM)	relative viability (Crizotinib + Bortezomib; first compound 0.1 µM)	relative viability (Crizotinib + Bortezomib; first compound 1 µM)	relative viability (Crizotinib + Olaparib; first compound 0.01 µM)	relative viability (Crizotinib + Olaparib; first compound 0.03162 µM)	relative viability (Crizotinib + Olaparib; first compound 0.1 µM)	relative viability (Crizotinib + Olaparib; first compound 0.3162 µM)	relative viability (Crizotinib + Olaparib; first compound 1 µM)	relative viability (Olaparib + Pemetrexed; first compound 0.08 µM)	relative viability (Olaparib + Pemetrexed; first compound 0.253 µM)	relative viability (Olaparib + Pemetrexed; first compound 2.53 µM)	relative viability (Olaparib + Pemetrexed; first compound 8 µM)	relative viability (Crizotinib + Bortezomib; first compound 0.3162 µM)
NCI-H1355	0.628	0.785	0.686	0.382	0.264	1.23	1.21	1.22	1.24	0.714	0.715	0.797	0.622	0.728	1.04	1.01	1.05	1.08	1.1
LCLC-103H	0.343	0.503	0.518	0.362	0.299	1.06	1.04	1.11	1.16	0.824	0.766	0.794	0.816	0.749	0.421	0.499	0.493	0.426	1.09
NCI-H838	0.321	0.333	0.291	0.267	0.182	0.806	0.695	0.968	–	0.712	0.763	0.78	0.712	0.726	0.25	0.226	0.239	0.246	0.863
Calu-6	–	–	–	–	–	0.936	0.988	1.03	0.958	0.606	0.571	0.522	0.624	0.549	–	–	–	–	0.892
BEN	0.294	0.328	0.299	0.298	0.203	0.862	0.788	–	0.78	1.04	1.06	0.924	0.974	1.15	0.725	0.672	0.828	0.895	0.815
NCI-H1651	0.361	0.295	0.266	0.104	0.0779	0.93	0.979	0.939	0.924	0.183	0.2	0.185	0.173	0.194	0.624	0.586	0.553	0.334	0.815
NCI-H2087	0.781	0.994	0.465	0.0405	0.0695	0.773	1.12	0.952	0.808	0.614	0.59	0.595	0.397	0.716	0.74	0.591	0.596	0.556	0.685
NCI-H520	0.204	0.17	0.168	0.188	0.213	0.492	0.5	0.586	0.331	0.285	0.35	0.408	0.301	0.349	0.866	0.646	0.604	0.458	0.522
NCI-H460	0.539	0.529	0.568	0.538	0.0417	1.08	1.07	1.01	1.1	0.463	0.457	0.455	–	0.423	0.055	0.0542	0.0654	0.0663	1.2
SK-MES-1	0.323	0.454	0.409	0.197	0.107	–	–	–	–	0.683	0.733	0.761	0.762	0.637	0.982	0.91	0.853	0.768	–
NCI-H2342	0.364	0.32	0.355	0.374	0.321	–	–	–	–	0.427	0.406	0.429	0.418	0.435	0.806	0.751	0.753	0.761	–
A549	–	–	–	–	–	–	–	–	–	0.38	0.259	0.362	–	0.456	–	–	–	–	–
EBC-1	–	–	–	–	–	0.599	0.564	0.28	0.259	0.563	0.664	0.643	0.182	0.154	–	–	–	–	0.231
NCI-H1395	0.411	0.426	0.417	0.36	0.314	–	–	–	–	0.458	0.452	0.5	0.487	0.428	0.8	0.565	0.564	0.497	–
NCI-H1299	–	–	–	–	–	1.04	1.07	1	0.996	0.95	0.95	0.92	0.947	0.975	–	–	–	–	1.02
NCI-H522	0.872	0.946	0.885	0.398	0.433	–	–	–	–	0.658	0.585	0.736	0.747	0.604	1.05	0.931	0.833	1.04	–
SW 900	0.561	0.467	0.137	0.141	0.137	–	–	–	–	0.792	0.814	0.831	1.06	0.863	0.502	0.461	0.456	0.457	–
NCI-H1563	0.431	0.463	0.488	0.505	0.367	0.744	0.859	0.857	0.832	–	–	–	–	–	0.91	0.76	0.834	0.686	0.779
NCI-H727	0.386	0.333	0.491	0.216	0.174	0.569	0.806	1.01	0.988	0.462	0.565	0.647	0.518	0.737	–	–	–	–	0.962
HCC-44	–	–	–	–	–	0.903	0.751	0.936	0.952	0.923	1.04	1.05	0.955	1	0.658	0.619	0.716	0.748	0.773
